# Patent publication US9593305B2, “Differentiation of pluripotent stem cells” (Janssen Biotech, Inc., priority 2008, dated 2017)
# System: H1 human embryonic stem cells
# Experiment: Compounds and growth factors with low dose activin A (Example 9, Table 9)
# Type: cell-based
# Experimental: Clusters of H1 human embryonic stem cells were grown on reduced growth factor […]™ (Invitrogen; Cat #356231)-coated tissue culture plastic. Cells were passaged using collagenase (Invitrogen; Cat #17104-019) treatment and gentle scraping, washed to remove residual enzyme, and plated with even dispersal at a ratio of 1:1 (surface area) on reduced growth factor […]™-coated 96-well black plates (Packard ViewPlates; PerkinElmer; Cat #6005182) using volumes of 100 μl/well. Cells were allowed to attach as clusters and then recover log phase growth over a 1 to 3 day period, feeding daily with MEF conditioned medium supplemented with 8 ng/ml bFGF (R&D Systems; Cat #233-FB). Plates were maintained at 37° C., 5% CO2 in a humidified box throughout the duration of assay.
# Stocks of growth factors purchased from R&D Systems were EGF (Cat #236-EG), FGF4 (Cat #235-F4), PDGF-A (Cat #221-AA), PDGF-D (Cat #1159-SB), PDGF-A/B (Cat #222-AB), VEGF (Cat #293-VE), and GDF-8 (Cat #788-08). Activin A was purchased from PeproTech (Cat #). Muscimol was purchased from Tocris (Cat #0289). All growth factors were solubilized in PBS with 0.1% BSA (Sigma; Cat #A7888) and stored frozen at −80° C. Muscimol was solubilized in 100% DMSO (Sigma; Cat #D2650) and stored frozen at −80° C. The compounds were available as 5 mM stocks in 96-well plate format, solubilized in 100% DMSO and stored at −80° C. The compounds were further diluted to an intermediate concentration of 0.2 mM in 50 mM HEPES (Invitrogen; Cat #15630-080), 20% DMSO and stored at 4° C. All growth factors and inhibitors were prepared in a deep well, 96-well polypropylene plate, diluted to 5× intermediate stocks in DMEM:F12 base medium at the beginning of assay and stored at 4° C.
# A secondary screening assay was conducted, testing in triplicate and feeding on alternate days over the four-day assay timeframe. Assays were initiated by aspirating culture medium from each well followed by three washes in PBS to remove residual growth factors and serum. Test volumes of 80 μl per well were added back containing DMEM:F12 base medium (Invitrogen; Cat #11330-032) supplemented with 0.625% FCS (HyClone; Cat #SH30070.03), 25 ng/ml Wnt3a (R&D Systems), 12.5 ng/ml activin A, and 3.125 μM compound plus 20 μl 5× stock of growth factor or small molecule to yield a final concentration of 0.5% FCS, 20 ng/ml Wnt3a, 10 ng/ml activin A, and 2.5 μM compound. All remaining growth factors were tested at a final assay concentration of 50 ng/ml (EGF, FGF4, PDGF-A, PDGF-A/B, VEGF), with the exception of GDF-8 used at 25 ng/ml. Final assay concentration of muscimol was 20 μM. Positive control wells (100 μl/well) contained the same base medium supplemented with 0.5% FCS, 20 ng/ml Wnt3a and 10 ng/ml (low dose) or 100 ng/ml (high dose) activin A. Negative control wells (100 μl/well) contained the same base medium with 0.5% FCS and 20 ng/ml Wnt3a, omitting activin A.
# Positive control wells (100 μl/well) contained the same base medium supplemented with 2% FCS and 10 ng/ml or 100 ng/ml activin A, omitting Wnt3a. Negative control wells (100 μl/well) contained the same base medium with 2% FCS, omitting both activin A and Wnt3a.
# At the conclusion of four-days of culture, assay plates were washed twice with PBS, fixed with 4% paraformaldehyde (Alexis Biochemical; Cat #ALX-350-011) at room temperature for 20 minutes, then washed three times with PBS and permeabilized with 0.5% Triton X-100 (Sigma; Cat #T8760-2) for 20 minutes at room temperature. Cells were washed again three times with PBS and blocked with 4% chicken serum (Invitrogen; Cat #16110082) in PBS for 30 minutes at room temperature. Primary antibody (goat anti-human SOX17; R&D Systems; cat #AF1924) was diluted 1:100 in 4% chicken serum and added to each well for one hour at room temperature. […]
# [1] = 10 ng/ml AA + compound + EGF + FGF4 + PDGF-A + Muscimol + Wnt3a
# [2] = 10 ng/ml AA + compound + EGF + FGF4 + PDGF-A + VEGF + PDGF-D + Muscimol + GDF8 + Wnt3a
# [3] = 10 ng/ml AA + compound + EGF + FGF4 + PDGF-AB + VEGF + Wnt3a
# [4] = 10 ng/ml AA + compound + EGF + FGF4 + PDGF-AB + Wnt3a
# [5] = 10 ng/ml AA + compound + EGF + FGF4 + Wnt3a
# [6] = 10 ng/ml AA + compound + EGF + Wnt3a
# [7] = 10 ng/ml AA + compound + FGF4 + Wnt3a
Compound,"Cell Number, % of positive control [1]","Cell Number, Average Total Cell Number [1]","Sox17 Expression, % of positive control [1]","Sox17 Expression, Average Total Intensity [1]","Cell Number, % of positive control [2]","Cell Number, Average Total Cell Number [2]","Sox17 Expression, % of positive control [2]","Sox17 Expression, Average Total Intensity [2]","Cell Number, % of positive control [3]","Cell Number, Average Total Cell Number [3]","Sox17 Expression, % of positive control [3]","Sox17 Expression, Average Total Intensity [3]","Cell Number, % of positive control [4]","Cell Number, Average Total Cell Number [4]","Sox17 Expression, % of positive control [4]","Sox17 Expression, Average Total Intensity [4]","Cell Number, % of positive control [5]","Cell Number, Average Total Cell Number [5]","Sox17 Expression, % of positive control [5]","Sox17 Expression, Average Total Intensity [5]",also measured
"O=C1NCCCc2cncc(c2)-c2ncnc(n2)Nc2cccc(c2)CN2CCC1CC2 [Compound 22, 1,8,10,12,16,22,30-Heptaazapentacyclo[22.2.2.1-3,7˜0.1˜9,13˜1-14,18˜]hentriaconta-3(31), 4,6,9(30), 10,12,14(29), 15,17-nonaen-23-one]",132.10 % of positive control,8100,38.65 % of positive control,4.42E+07,139.53 % of positive control,8556,76.82 % of positive control,8.78E+07,124.87 % of positive control,7657,41.09 % of positive control,4.70E+07,130.06 % of positive control,7975,30.03 % of positive control,3.43E+07,159.83 % of positive control,9800,40.13 % of positive control,4.59E+07,"Cell Number, % of positive control [6]: 81.55 % of positive control; Cell Number, Average Total Cell Number [6]: 5001; Sox17 Expression, % of positive control [6]: 24.45 % of positive control; Sox17 Expression, Average Total Intensity [6]: 2.80E+07; Cell Number, % of positive control [7]: 105.84 % of positive control; Cell Number, Average Total Cell Number [7]: 6490; Sox17 Expression, % of positive control [7]: 37.43 % of positive control; Sox17 Expression, Average Total Intensity [7]: 4.28E+07; Cell Number, % of positive control (10 ng/ml AA + compound + Wnt3a): 74.09 % of positive control; Cell Number, Average Total Cell Number (10 ng/ml AA + compound + Wnt3a): 4543; Sox17 Expression, % of positive control (10 ng/ml AA + compound + Wnt3a): 26.65 % of positive control; Sox17 Expression, Average Total Intensity (10 ng/ml AA + compound + Wnt3a): 3.05E+07"
"CCN1CCCc2cccc(c2)-c2ncnc(n2)Nc2cccc(c2)CCNC(=O)C1 [Compound 29, 18-Ethyl-3,5,7,15,18,28-hexaazatetracyclo[20.3.1.1˜2,6˜0.1˜8,12˜]octacosa-1(26), 2(28), 3,5,8(27), 9,11,22,24-nonaen-16-one]",76.26 % of positive control,4676,21.11 % of positive control,2.41E+07,44.63 % of positive control,2737,21.10 % of positive control,2.41E+07,37.23 % of positive control,2283,4.88 % of positive control,5.59E+06,64.65 % of positive control,3964,19.89 % of positive control,2.27E+07,28.31 % of positive control,1736,1.73 % of positive control,1.98E+06,"Cell Number, % of positive control [6]: 5.96 % of positive control; Cell Number, Average Total Cell Number [6]: 365; Sox17 Expression, % of positive control [6]: −4.25 % of positive control; Sox17 Expression, Average Total Intensity [6]: −4.86E+06; Cell Number, % of positive control [7]: 34.89 % of positive control; Cell Number, Average Total Cell Number [7]: 2139; Sox17 Expression, % of positive control [7]: 6.10 % of positive control; Sox17 Expression, Average Total Intensity [7]: 6.98E+06; Cell Number, % of positive control (10 ng/ml AA + compound + Wnt3a): 34.09 % of positive control; Cell Number, Average Total Cell Number (10 ng/ml AA + compound + Wnt3a): 2090; Sox17 Expression, % of positive control (10 ng/ml AA + compound + Wnt3a): 4.28 % of positive control; Sox17 Expression, Average Total Intensity (10 ng/ml AA + compound + Wnt3a): 4.89E+06"
